Assay results published in the NIST ThermoML archive (doi:10.1021/je060271a).
± gives the expanded uncertainty stated by the source.

Conditions: 283.15 K, Liquid, Vibrating tube method

CCCC(=O)OCC(COC(=O)CCC)(COC(=O)CCC)COC(=O)CCC [pentaerythritol tetrabutyrate]
Conditions	mass density [kg/m3]
26946 kPa	1074.1 ± 1.3
26974 kPa	1074.2 ± 1.3
26998 kPa	1074.3 ± 1.3
27022 kPa	1074.2 ± 1.3
27050 kPa	1074.3 ± 1.3
27074 kPa	1074.2 ± 1.3
27098 kPa	1074.2 ± 1.3
27122 kPa	1074.3 ± 1.3
27151 kPa	1074.2 ± 1.3
27174 kPa	1074.3 ± 1.3
27198 kPa	1074.2 ± 1.3
27228 kPa	1074.3 ± 1.3
27248 kPa	1074.3 ± 1.3
27267 kPa	1074.4 ± 1.3
27296 kPa	1074.4 ± 1.3
27330 kPa	1074.3 ± 1.3
27354 kPa	1074.3 ± 1.3
27384 kPa	1074.5 ± 1.3
27408 kPa	1074.4 ± 1.3
27433 kPa	1074.5 ± 1.3
27463 kPa	1074.4 ± 1.3
27488 kPa	1074.4 ± 1.3
27512 kPa	1074.4 ± 1.3
27542 kPa	1074.4 ± 1.3
27566 kPa	1074.6 ± 1.3
27592 kPa	1074.5 ± 1.3
27622 kPa	1074.5 ± 1.3
27646 kPa	1074.5 ± 1.3
27672 kPa	1074.6 ± 1.3
27701 kPa	1074.7 ± 1.3
27726 kPa	1074.6 ± 1.3
27752 kPa	1074.6 ± 1.3
27782 kPa	1074.5 ± 1.3
27808 kPa	1074.6 ± 1.3
27833 kPa	1074.6 ± 1.3
27863 kPa	1074.6 ± 1.3
27889 kPa	1074.6 ± 1.3
27915 kPa	1074.7 ± 1.3
27941 kPa	1074.7 ± 1.3
27972 kPa	1074.8 ± 1.3
27998 kPa	1074.6 ± 1.3
28024 kPa	1074.7 ± 1.3
28049 kPa	1074.8 ± 1.3
28080 kPa	1074.8 ± 1.3
28101 kPa	1074.7 ± 1.3
28127 kPa	1074.7 ± 1.3
28164 kPa	1074.8 ± 1.3
28190 kPa	1074.8 ± 1.3
28217 kPa	1074.7 ± 1.3
28249 kPa	1074.7 ± 1.3
28276 kPa	1074.8 ± 1.3
28303 kPa	1074.9 ± 1.3
28329 kPa	1074.9 ± 1.3
28356 kPa	1075 ± 1.3
28388 kPa	1074.9 ± 1.3
28415 kPa	1074.9 ± 1.3
28447 kPa	1075 ± 1.3
28474 kPa	1075.1 ± 1.3
28500 kPa	1075 ± 1.3
28527 kPa	1075 ± 1.3
28559 kPa	1075.1 ± 1.3
28586 kPa	1075 ± 1.3
28618 kPa	1075.1 ± 1.3
28646 kPa	1075.1 ± 1.3
28674 kPa	1075.2 ± 1.3
28706 kPa	1075.1 ± 1.3
28733 kPa	1075 ± 1.3
28760 kPa	1075.2 ± 1.3
28787 kPa	1075.2 ± 1.3
28820 kPa	1075.2 ± 1.3
28847 kPa	1075.2 ± 1.3
28881 kPa	1075.2 ± 1.3
28908 kPa	1075.1 ± 1.3
28936 kPa	1075.1 ± 1.3
28969 kPa	1075.2 ± 1.3
28985 kPa	1075.3 ± 1.3
28997 kPa	1075.2 ± 1.3
29011 kPa	1075.2 ± 1.3
29026 kPa	1075.1 ± 1.3
29043 kPa	1075.2 ± 1.3
29054 kPa	1075.3 ± 1.3
29088 kPa	1075.3 ± 1.3
29116 kPa	1075.3 ± 1.3
29146 kPa	1075.2 ± 1.3
29150 kPa	1075.4 ± 1.3
29179 kPa	1075.3 ± 1.3
29207 kPa	1075.3 ± 1.3
29240 kPa	1075.3 ± 1.3
29253 kPa	1075.5 ± 1.3
29268 kPa	1075.4 ± 1.3
29296 kPa	1075.4 ± 1.3
29322 kPa	1075.4 ± 1.3
29330 kPa	1075.5 ± 1.3
29357 kPa	1075.4 ± 1.3
29385 kPa	1075.6 ± 1.3
29417 kPa	1075.4 ± 1.3
29442 kPa	1075.4 ± 1.3
29443 kPa	1075.6 ± 1.3
29464 kPa	1075.4 ± 1.3
29471 kPa	1075.6 ± 1.3
29482 kPa	1075.7 ± 1.3
29505 kPa	1075.5 ± 1.3
29534 kPa	1075.5 ± 1.3
29557 kPa	1075.5 ± 1.3
29562 kPa	1075.6 ± 1.3
29590 kPa	1075.5 ± 1.3
29625 kPa	1075.6 ± 1.3
29628 kPa	1075.6 ± 1.3
29649 kPa	1075.5 ± 1.3
29655 kPa	1075.6 ± 1.3
29683 kPa	1075.6 ± 1.3
29711 kPa	1075.5 ± 1.3
29718 kPa	1075.7 ± 1.3
29748 kPa	1075.7 ± 1.3
29778 kPa	1075.5 ± 1.3
29786 kPa	1075.7 ± 1.3
29808 kPa	1075.6 ± 1.3
29843 kPa	1075.7 ± 1.3
29859 kPa	1075.7 ± 1.3
29872 kPa	1075.7 ± 1.3
29901 kPa	1075.7 ± 1.3
29931 kPa	1075.8 ± 1.3
29943 kPa	1075.7 ± 1.3
29966 kPa	1075.7 ± 1.3
29996 kPa	1075.8 ± 1.3
30016 kPa	1075.8 ± 1.3
30031 kPa	1075.7 ± 1.3
30034 kPa	1075.7 ± 1.3
30037 kPa	1075.8 ± 1.3
30045 kPa	1075.9 ± 1.3
30052 kPa	1075.8 ± 1.3
30061 kPa	1075.8 ± 1.3
30091 kPa	1075.8 ± 1.3
30121 kPa	1075.8 ± 1.3
30158 kPa	1075.9 ± 1.3
30189 kPa	1075.9 ± 1.3
30208 kPa	1075.9 ± 1.3
30219 kPa	1075.9 ± 1.3
30250 kPa	1075.8 ± 1.3
30282 kPa	1076 ± 1.3
30285 kPa	1075.9 ± 1.3
30316 kPa	1076 ± 1.3
30325 kPa	1076 ± 1.3
30346 kPa	1075.9 ± 1.3
30381 kPa	1076 ± 1.3
30411 kPa	1075.9 ± 1.3
